This passage reports RP-LC retention time results from the METLIN SMRT retention time set (Domingo-Almenara et al. 2019).

The nature of the series: gradient 5% acetonitrile 3 min, to 50% in 2 min, to 85% in 15 min, held 3 min, 100 µL/min. The settings on record: column: Zorbax Extend-C18 2.1 x 50 mm; eluents: water / acetonitrile, 0.1% formic acid. In outline: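 Values are retention times taken from adduct peaks that software picked and an analyst inspected. The pure standards were run as mixtures of ~100 molecules on HPLC linked to a quadrupole time-of-flight mass spectrometer, in positive and negative ionization mode. A Zorbax Extend-C18 column (2.1 × 50 mm, 1.8 μm) was used at 100 μL/min with water and acetonitrile, each including 0.1% formic acid.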
Molecule `CCn1ccc(NC(=O)NC(C)(C)C)n1` gave an RP-LC retention time of 705 s.

`CCn1c(=O)c(N2CCC(NC(=O)Nc3cc(C)ccc3C)CC2)nc2cccnc21` had an RP-LC retention time of 993 s.

Regarding `CCN1CCCC1CNC(=O)c1nc(-c2ccc3c(c2)OCC(=O)N3C)no1` (centres undefined), the RP-LC retention time was 617 s.

With `CCc1nc2ccccc2n1CC(O)COc1ccc(C)c(C)c1` (centres undefined), the RP-LC retention time came out at 696 s.

For `CC(C)OC(=O)Cn1c(C2CC(=O)N(Cc3ccccc3)C2)nc2ccccc21` (centres undefined), the RP-LC retention time was found to be 799 s.

In turn, `CC(C)Cn1c(=O)c(N2CCN(C(=O)NCc3ccccc3)CC2)nc2ccncc21` showed an RP-LC retention time of 572 s.

Consider `Cc1ccc(Cn2cc(-c3ccncc3)cc2C(=O)NCc2cccnc2)cc1`, for which the RP-LC retention time came out at 581 s.

As to `COc1cc(C(=O)N2CCC(CC(=O)N3CCN(c4ccccn4)CC3)CC2)cc(OC)c1OC`, the RP-LC retention time was 595 s.

With `O=C(CNC(=O)c1ccc2c(c1)OCO2)Nc1nc2ccccc2[nH]1`, the RP-LC retention time was determined as 611 s.

On to `O=C(Nc1ccc2c(c1)OCCO2)c1cc2n(n1)CCCN(Cc1ccc(F)cc1)C2=O`, for which the RP-LC retention time worked out at 863 s.

As to `COc1cccc(S(=O)(=O)N2CCC3(CC2)NCCCN=C3NC2CCCCC2)c1`, the RP-LC retention time amounted to 759 s.

With `O=C(c1cc(-c2cccnc2)n[nH]1)N1CCC(C(=O)N2CCN(c3ccc(Cl)cc3)CC2)CC1`, the RP-LC retention time turned out to be 694 s.

For the molecule `CCc1ccc(Oc2cc(N3CCC(C(=O)NCCc4cccnc4)CC3)ncn2)cc1`, the RP-LC retention time came to 657 s.

In turn, `COC(=O)c1ccc(NC(=O)N2[C@H]3CC[C@@H]2c2cnc(-c4ccc(F)cc4)nc2C3)cc1` showed an RP-LC retention time of 993 s.

With `CC(C)NC(=O)NC1CCN(c2ccc(F)cc2)C1=O` (centres undefined), the RP-LC retention time stood at 659 s.

The molecule `O=C(c1ccc(N2CCOCC2)nn1)N1CCN(c2cccc(C(F)(F)F)c2)CC1` registered an RP-LC retention time of 779 s.

As to `COc1ccc(S(=O)(=O)NCCc2noc(C)n2)cc1`, the RP-LC retention time came out at 709 s.

`O=C(Nc1nnc(C2CC(=O)N(c3ccc(Cl)cc3)C2)o1)c1ccc(C(F)(F)F)cc1` (centres undefined) displayed an RP-LC retention time of 884 s.

Consider `CC(C)OCCCNC(=O)C1Cn2cccc2C(=O)N1C` (centres undefined), for which the RP-LC retention time is 621 s.

`O=C(NCCCN1CCOCC1)C1CCc2sc(C(=O)N3CCCCCC3)cc2C1` (centres undefined) gave an RP-LC retention time of 560 s.

`Cc1ccc(C)c(CNC(=O)c2c(C)sc3ccn(C)c(=O)c23)c1`: the RP-LC retention time turned out to be 848 s.

With `COc1cccc(N2CC(NC(=O)Nc3cccnc3)CC2=O)c1` (centres undefined), the RP-LC retention time turned out to be 544 s.

`c1ccc(-c2nnc(-c3ccccn3)s2)nc1` had an RP-LC retention time of 850 s.

For `Cc1ccc(NC(=O)C2Oc3ccccc3NC2=O)c(Br)c1` (centres undefined), the RP-LC retention time turned out to be 852 s.

Regarding `COCc1noc(C2CCCCN2C(=O)CCc2ccccc2OC)n1` (centres undefined), the RP-LC retention time is 902 s.

As to `CC(=O)N1CCCSc2ccc(S(=O)(=O)N3CCCC(CN4CCc5ccccc5C4)C3)cc21` (centres undefined), the RP-LC retention time came to 687 s.

Regarding `COc1ccccc1OCC1c2ccsc2CCN1C(=O)CN(CC1CC1)C(=O)NC(C)C` (centres undefined), the RP-LC retention time came to 919 s.

In turn, `O=c1c2cnn(-c3ccc(F)cc3)c2ncn1Cc1nc(-c2ccc(OC(F)(F)F)cc2)no1` registered an RP-LC retention time of 1160 s.

Molecule `Cc1cc(OCC(=O)N[C@@H](CC(C)C)C(=O)O)c2c3c(c(=O)oc2c1)CCC3` returned an RP-LC retention time of 822 s.

`COc1ccc(NC(=O)C2CCN(S(=O)(=O)c3cc4c(cc3C)NC(=O)CO4)CC2)cc1OC` returned an RP-LC retention time of 712 s.

The molecule `Cn1nc(-c2nc(-c3ccc(F)cc3)no2)c2c1CCN(C(=O)NC(C)(C)C)C2` registered an RP-LC retention time of 966 s.

On to `CCOc1ccc(-c2noc(Cc3nnc(-c4cccc(Cl)c4)o3)n2)cc1`, for which the RP-LC retention time stood at 1140 s.

Turning to `CCn1ccc2cc(S(=O)(=O)N3CCCC(C(=O)N4CCN(c5ccccn5)CC4)C3)ccc21` (centres undefined), the RP-LC retention time stood at 609 s.

Molecule `CCOc1ccc(-c2cn3ccn(-c4ccc(C(C)C)cc4)c(=O)c3n2)cc1` registered an RP-LC retention time of 1030 s.

`O=C(O)Cc1sc(NCc2ccccc2)nc1-c1ccccc1` gave an RP-LC retention time of 681 s.

With `Cc1csc(-c2cc(S(=O)(=O)NCc3ccc(N(C)C)cc3)c(C)s2)n1`, the RP-LC retention time came out at 763 s.

`CCCONC(=O)Nc1ccccc1[N+](=O)[O-]` had an RP-LC retention time of 787 s.

`CCn1cc(-c2nc(CC(=O)Nc3ccc(F)cc3Cl)cs2)c2cccnc21` returned an RP-LC retention time of 720 s.

In turn, `O=C(CCc1nnc2c3cc(-c4ccc(F)cc4)nn3ccn12)N1CCN(c2ccccn2)CC1` displayed an RP-LC retention time of 611 s.

The molecule `O=C(CCc1c[nH]c2ccccc12)N1CCN2CCS(=O)(=O)N(C3CC3)C(=O)C2C1` (centres undefined) registered an RP-LC retention time of 766 s.

Turning to `O=C(NCc1ccccn1)C1CCN(c2cnn(Cc3ccccc3)c(=O)c2)CC1`, the RP-LC retention time worked out at 615 s.

For the molecule `CCSc1ccccc1C(=O)NCc1cc(-c2ccccc2)on1`, the RP-LC retention time is 864 s.

Consider `Cn1nccc1C(=O)Nc1sc(-c2ccccc2)cc1C(N)=O`, for which the RP-LC retention time is 810 s.

Turning to `COCCn1cc(CCNC(=O)Nc2c(C)cccc2C)c2cccnc21`, the RP-LC retention time was found to be 686 s.

Turning to `O=C(C1CCN(S(=O)(=O)c2ccc(-c3noc(-c4ccccn4)n3)cc2)CC1)N1CCCC1`, the RP-LC retention time turned out to be 792 s.

Take `COc1ccc(-c2nc(CNC(=O)c3ccc(-n4cccn4)nn3)cs2)cc1`: the RP-LC retention time is 855 s.

With `Cc1oc(-c2[nH]ncc2C(=O)N2CCOCC2)cc1S(=O)(=O)N1CCCC1`, the RP-LC retention time is 616 s.

`Cc1ccc(CSc2nc(CC(=O)NCc3nnc(C)o3)cs2)cc1` showed an RP-LC retention time of 724 s.

`O=C(NCC1CCCO1)c1csc(N2CCN(c3cccc(Cl)c3)CC2)n1` (centres undefined) yielded an RP-LC retention time of 703 s.

Turning to `CC(C)c1noc(-c2cc(=O)n(CC(=O)NCc3cccc(Cl)c3)c3ccccc23)n1`, the RP-LC retention time is 1030 s.

`CC(C)C(=O)Nc1ccc2c(c1)nc(CN1CCOCC1)n2C(C)C` came in with an RP-LC retention time of 607 s.

For the molecule `O=C(Cn1nc2ccc(C(=O)NCc3ccccc3)cn2c1=O)NC1CCc2ccccc21` (centres undefined), the RP-LC retention time was 766 s.

With `Cc1ccc(NC(=O)N2C[C@H](c3nc(-c4ccncc4)no3)[C@@H](C)C2)c(C)c1`, the RP-LC retention time came to 797 s.

In turn, `O=C(Cn1c(=O)c(CCC(=O)NC2CC2)nc2ccccc21)Nc1cc(F)cc(F)c1` displayed an RP-LC retention time of 774 s.

For `COc1cc(OC)c(NC(=O)N2CCCC(C)(C(=O)NCc3ccc(C)cc3)C2)cc1Cl` (centres undefined), the RP-LC retention time is 971 s.

`CC(=O)Oc1ccc(OC(C)=O)c2c1CC1(C)OC1(C)C2` (centres undefined) returned an RP-LC retention time of 703 s.

In the case of `CCN1CCN(CCNC(=O)CCCN2C(=O)CCn3nc(-c4cccn4C)cc32)CC1`, the RP-LC retention time is 575 s.

Regarding `COC(=O)c1cc(S(=O)(=O)N2CCCC2C(=O)Nc2cc(F)ccc2F)cn1C` (centres undefined), the RP-LC retention time is 911 s.

`CCNc1nc(C)cc(N2CCN(S(=O)(=O)c3cccc(C(F)(F)F)c3)CC2)n1` came in with an RP-LC retention time of 754 s.

`CCOC(=O)N1CCC2(CC1)OC(=O)C(C)=C2C(=O)Nc1ccc(F)cc1F` showed an RP-LC retention time of 840 s.

Molecule `Cc1oc2ccn(Cc3ccc(F)cc3)c(=O)c2c1C(=O)NCc1ccco1` gave an RP-LC retention time of 975 s.

For the molecule `O=C1CCCCC(Cc2ccccc2)(C(=O)O)N1` (centres undefined), the RP-LC retention time turned out to be 652 s.

Regarding `Cc1cnc(-c2ccccc2)n1CCNS(=O)(=O)c1cccc(F)c1`, the RP-LC retention time was 633 s.

Molecule `CCOc1ccc(NC(=O)C2CCN(S(=O)(=O)c3ccc4c(c3)NC(=O)CO4)CC2)cc1` came in with an RP-LC retention time of 801 s.

As to `NC(=O)C1CCCN(c2cccc3c2C(=O)c2ccccc2C3=O)C1` (centres undefined), the RP-LC retention time came to 652 s.

`COc1cc(Cl)ccc1-c1nc(C2CC(=O)N(c3ccc(C)cc3)C2)no1` (centres undefined): the RP-LC retention time is 1070 s.

Take `COC(=O)c1cc2c(cc1NC(=O)c1cc(-c3cccnc3)nc3ccccc13)OCO2`: the RP-LC retention time came out at 884 s.

`CCNC(=O)C1CC(=O)N(c2cccc(C)c2)C1` (centres undefined) returned an RP-LC retention time of 658 s.

Regarding `O=S(=O)(c1ccc(-c2noc(COc3ccc(Cl)cc3)n2)cc1)N1CCCC1`, the RP-LC retention time was found to be 1170 s.

Molecule `CCN(CC)C(=O)c1cc(C)nc2c1c(=O)n(Cc1ccccc1C)c(=O)n2C` gave an RP-LC retention time of 938 s.

On to `Cc1cc2c(c(=O)n(-c3ccc(F)cc3)c(=O)n2CC(=O)Nc2cccc(C#N)c2)n1C`, for which the RP-LC retention time was 824 s.

As for `COCc1cc(=O)n(CC(=O)Nc2cc(C)cc(C)c2)c(N2CCOCC2)n1`, the RP-LC retention time came out at 893 s.

`Cc1noc(C)c1CN1CCC(NC(=O)c2ccc3cc[nH]c3c2)CC1` returned an RP-LC retention time of 596 s.

On to `C(=C\c1ccc(/C=C/c2ccccc2)nn1)/c1ccccc1`, for which the RP-LC retention time came out at 1140 s.

`O=C(Nc1nc(-c2ccccc2)cs1)c1ccc(COc2c(F)c(F)c(F)c(F)c2F)o1` showed an RP-LC retention time of 1220 s.

`O=C(NCC1(CO)CC1)c1cc(-c2ccccc2)on1`: the RP-LC retention time stood at 703 s.

With `O=C(Nc1ccc(F)c(Cl)c1)N1CCc2nc[nH]c2C1`, the RP-LC retention time amounted to 614 s.

With `O=C(N1CCOCC1)C1(c2cc(-c3ccco3)on2)CC1`, the RP-LC retention time is 673 s.

`COCCCNC(=O)C1c2ccccc2C(=O)N1Cc1ccccc1C` (centres undefined) gave an RP-LC retention time of 753 s.
